Publication PMC12122380 (2025)

Assays:
[1] = tested on: Pepper (RNA, aptamer) GGCGCACUGGCGCUGCGCCUUCGGGCGCCAAUCGUAGCGUGUCGGCGCC; assay: covalent adduct formation, fluorescence; conditions: K+, Mg2+
[2] = tested on: Pepper (RNA, aptamer) GGCGCACUGGCGCUGCGCCUUCGGGCGCCAAUCGUAGCGUGUCGGCGCC; assay: AE-HPLC of covalent adduct; conditions: K+ 150 mM, Mg2+ 2 mM, 50 mM MES pH 6.0, 15% DMSO, 37 °C, 50 µM ligand
[3] = tested on: Pepper (RNA, aptamer) GGCGCACUGGCGCUGCGCCUUCGGGCGCCAAUCGUAGCGUGUCGGCGCC; assay: AE-HPLC, FT-ICR mass spectrometry of covalent adduct; conditions: K+ 150 mM, Mg2+ 2 mM; covalent at G41; 50 mM MES pH 6.0, 37 °C; no crosslinking without Mg2+
[4] = tested on: Pepper (RNA, aptamer) GGCGCACUGGCGCUGCGCCUUCGGGCGCCAAUCGUAGCGUGUCGGCGCC; assay: fluorescence emission; conditions: K+ 100 mM, Mg2+ 2 mM; 50 mM MES pH 6.0; 0.5 µM RNA, 0.5 µM HBC; noncovalent
[5] = tested on: Tt wt preQ1 RNA aptamer (RNA, riboswitch) CUGGGUCGCAGUAACCCCAGUUAACAAAACAAG; assay: AE-HPLC alkylation kinetics, Michaelis-Menten fit; conditions: K+ (KCl); covalent; apparent; MES pH 6.0, 37 °C
[6] = tested on: Tt C15U preQ1 RNA aptamer (RNA, riboswitch) CUGGGUCGCAGUAAUCCCAGUUAACAAAACAAG; assay: AE-HPLC of covalent adduct; conditions: K+ 100 mM, Mg2+ 2 mM, 50 mM MES pH 6.0, 37 °C, 48 h, 125 µM ligand
[7] = tested on: 155 nt (Szostak) self-biotinylating ribozyme (RNA, ribozyme) GGAGGCACCACGGCUGGAUCCGGUUUAUUAUCAUGAGCCCGACUCGGGCAGCACUGUACAUAAGCUCGGAUGCCAUAGUUUAGACACUAUGGACGUAAAGCCCAUGCUAGGCAAAGACAUUGACUGCAUGAGCGCCGCCUUGGUCAUUAGGAUCG; assay: PAGE, streptavidin blot of covalent adduct; conditions: K+ 100 mM, Mg2+ 5 mM, 50 mM HEPES pH 7.4, 37 °C, 1 mM or 50 µM ligand
[8] = tested on: 58 nt (Liu) self-biotinylating ribozyme (RNA, ribozyme) GGCCGCUCCAGAAGAGGGCCCCCUUGCCCGUUAUCGGGGGCUAGGCUCGAUGUCGGCC; assay: RP-HPLC of covalent adduct; conditions: K+ 100 mM, Mg2+ 5 mM, 50 mM HEPES pH 7.4, 37 °C, 2.5 mM ligand
[9] = tested on: 58 nt (Liu) self-biotinylating ribozyme (RNA, ribozyme) GGCCGCUCCAGAAGAGGGCCCCCUUGCCCGUUAUCGGGGGCUAGGCUCGAUGUCGGCC; assay: PAGE, streptavidin blot of covalent adduct; conditions: K+ 100 mM, Mg2+ 5 mM, 50 mM HEPES pH 7.4, 37 °C, 1 mM ligand, 5 h

`C=Cc1ccc(/C(C#N)=C/c2ccc(N(C)CCCOS(C)(=O)=O)cc2)cc1` was tested. Which binding [1] did it give?
The binding was “yes”.

With `CN(CCCBr)c1ccc(/C=C(\C#N)c2ccc(C#N)cc2)cc1` as the compound, how does the binding [2] read?
Its binding is “yes”.

With `CN(CCCOS(C)(=O)=O)c1ccc(/C=C(\C#N)c2ccc(C#N)cc2)cc1` as the compound, how does the binding [3] read?
The binding was “yes”.

With `CN(CCO)c1ccc(/C=C(\C#N)c2ccc(C#N)cc2)cc1` as the compound, how does the binding [4] read?
Its binding is “yes”.

How did the KM [5] turn out when `Nc1nc(N)c2c(CNCCCBr)c[nH]c2n1` was run?
Its KM is 0.162 ± 0.016 µM.

With `Nc1nc2[nH]cc(CNCCCBr)c2c(=O)[nH]1` as the compound, how does the binding [6] read?
The binding was “yes”.

Which binding [7] does the source give for `O=C(CI)NCCNC(=O)CCCC[C@@H]1SC[C@@H]2NC(=O)N[C@@H]21` here?
The binding was “yes”.

Which binding [8] does the source give for `O=C1N[C@H]2[C@H](CS[C@H]2CCCCC(=O)OCCOCCCCBr)N1` here?
Its binding is “yes”.

What about the binding [9] of the same compound?
Its binding is “yes”.
